Experiment in all cases: combination Emax (second highest fraction inhibited in the dose matrix, 72 h); higher = more inhibition; extreme values may be limits of the assay
Test [1] has as its system AsPC-1 (Pancreatic Carcinoma). The method in brief: (§1)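 Cell lines grown in DMEM/F12 or RPMI with 10% FBS were plated in 1536-well plates and held 24 hours at 37°C, 5% CO2 before 72 hours of exposure to two-drug dose matrices, with DMSO typically at 0.2%. CellTiter-Glo 2.0 luminescence gave viability, which was converted to inhibition. Vehicle wells were set to 0 and blank wells to 1. Combination Emax is the second-highest inhibition in the matrix, and Bliss excess is the observed combination effect minus the expected EA + EB − EA·EB, where EA and EB are the single-agent effects.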

For test [2], the system named is PANC-02-03 (Pancreatic Carcinoma). Summed up: as §1
For test [3], the system named is RERF-LC-KJ (Lung Adenocarcinoma). Summed up:
as §1

Test [4] deals with SW684 (Other Solid Carcinomas). The method in brief:
as §1

In the case of `CN(CCO)CC[C@H](CSc1ccccc1)Nc1ccc(S(=O)(=O)NC(=O)c2ccc(N3CCC([C@@H](O)c4ccccc4-c4ccc(Cl)cc4)CC3)cc2)cc1S(=O)(=O)C(F)(F)F` [AZD4320] + Cc1cc2ncnn2cc1Nc1ncc2c(n1)n(C1CCOCC1)c(=O)n2C [AZD7648] (first compound max 1 µM, 7x7, partner max 10 µM), the “combination Emax” value in test [1] was determined as 0.566; in test [2] it was 0.109; in test [3], 0.288; in test [4], 0.184.
Consider `CN(CCO)CC[C@H](CSc1ccccc1)Nc1ccc(S(=O)(=O)NC(=O)c2ccc(N3CCC([C@@H](O)c4ccccc4-c4ccc(Cl)cc4)CC3)cc2)cc1S(=O)(=O)C(F)(F)F` [AZD4320] + Cn1cnc2c(F)c(Nc3ccc(Br)cc3Cl)c(C(=O)NOCCO)cc21 [Selumetinib] (first compound max 1 µM, 7x7, partner max 3 µM), for which the “combination Emax” value in test [1] stood at 0.759; in test [2], 0.55; in test [3], 0.298; in test [4], 0.609.
For `Cc1c2c(nn1C)CSCc1cc(n(C)n1)CSc1cc(c3ccccc3c1)OCCCc1c(C(=O)O)n(C)c3c-2c(Cl)ccc13` [AZD5991] + C1CN(CCC1(C(=O)N[C@@H](CCO)C2=CC=C(C=C2)Cl)N)C3=NC=NC4=C3C=CN4 [Capivasertib] (first compound max 1 µM, 7x7, partner max 3 µM), the “combination Emax” value in test [1] came out at 0.161; in test [2], 0.179; in test [3], 0.495; in test [4], 0.402.
Take `Cc1c2c(nn1C)CSCc1cc(n(C)n1)CSc1cc(c3ccccc3c1)OCCCc1c(C(=O)O)n(C)c3c-2c(Cl)ccc13` [AZD5991] + C=CCn1c(=O)c2cnc(Nc3ccc(N4CCN(C)CC4)cc3)nc2n1-c1cccc(C(C)(C)O)n1 [AZD1775] (first compound max 1 µM, partner max 1 µM): the “combination Emax” value in test [1] is 0.369; in test [2] it was 0.594; in test [3], 0.563; in test [4] it was 0.273.
Turning to `Cc1c2c(nn1C)CSCc1cc(n(C)n1)CSc1cc(c3ccccc3c1)OCCCc1c(C(=O)O)n(C)c3c-2c(Cl)ccc13` [AZD5991] + CC1(C)CCC(CN2CCN(c3ccc(C(=O)NS(=O)(=O)c4ccc(NCC5CCOCC5)c([N+](=O)[O-])c4)c(Oc4cnc5[nH]ccc5c4)c3)CC2)=C(c2ccc(Cl)cc2)C1 [Venetoclax] (first compound max 1 µM, 7x7, partner max 1 µM), the “combination Emax” value was 0.12 in test [1], 0.138 in test [2], 0.444 in test [3] and 0.174 in test [4].
Take `Cc1c2c(nn1C)CSCc1cc(n(C)n1)CSc1cc(c3ccccc3c1)OCCCc1c(C(=O)O)n(C)c3c-2c(Cl)ccc13` [AZD5991] + CCN(CCO)CCCOc1ccc2c(Nc3cc(CC(=O)Nc4cccc(F)c4)[nH]n3)ncnc2c1 [AZD2811] (first compound max 1 µM, 7x7, partner max 1 µM): the “combination Emax” value in test [1] was 0.243; in test [2] it was 0.269; in test [3], 0.584; in test [4] it was 0.231.
Take `Cc1c2c(nn1C)CSCc1cc(n(C)n1)CSc1cc(c3ccccc3c1)OCCCc1c(C(=O)O)n(C)c3c-2c(Cl)ccc13` [AZD5991] + CN(C)CCCOc1ccc(-c2ccc3ncc4c(c3c2)n(C2CCOCC2)c(=O)n4C)cn1 [AZD0156] (first compound max 1 µM, 7x7, partner max 1 µM): the “combination Emax” value in test [1] is 0.24; in test [2], 0.203; in test [3] it was 0.589; in test [4], 0.236.
Take `Cc1c2c(nn1C)CSCc1cc(n(C)n1)CSc1cc(c3ccccc3c1)OCCCc1c(C(=O)O)n(C)c3c-2c(Cl)ccc13` [AZD5991] + C[C@@H]1COCCN1C2=NC(=NC(=C2)C3(CC3)[S@](=N)(=O)C)C4=C5C=CNC5=NC=C4 [AZD6738] (first compound max 1 µM, 7x7, partner max 10 µM): the “combination Emax” value in test [1] was found to be 0.292; in test [2], 0.528; in test [3], 0.465; in test [4], 0.428.
Regarding `Cc1c2c(nn1C)CSCc1cc(n(C)n1)CSc1cc(c3ccccc3c1)OCCCc1c(C(=O)O)n(C)c3c-2c(Cl)ccc13` [AZD5991] + C[C@@H](Nc1cc(F)cc(F)c1)c1cc(C(=O)N(C)C)cc2c(=O)cc(N3CCOCC3)oc12 [AZD8186] (first compound max 1 µM, 7x7, partner max 3 µM), the “combination Emax” value in test [1] was found to be 0.235; in test [2], 0.232; in test [3] it was 0.527; in test [4], 0.454.
Take `Cc1c2c(nn1C)CSCc1cc(n(C)n1)CSc1cc(c3ccccc3c1)OCCCc1c(C(=O)O)n(C)c3c-2c(Cl)ccc13` [AZD5991] + Cc1cc2ncnn2cc1Nc1ncc2c(n1)n(C1CCOCC1)c(=O)n2C [AZD7648] (first compound max 1 µM, 7x7, partner max 10 µM): the “combination Emax” value was found to be 0.246 in test [1], 0.183 in test [2], 0.48 in test [3] and 0.298 in test [4].
With `Cc1c2c(nn1C)CSCc1cc(n(C)n1)CSc1cc(c3ccccc3c1)OCCCc1c(C(=O)O)n(C)c3c-2c(Cl)ccc13` [AZD5991] + Cn1cnc2c(F)c(Nc3ccc(Br)cc3Cl)c(C(=O)NOCCO)cc21 [Selumetinib] (first compound max 1 µM, 7x7, partner max 3 µM), the “combination Emax” value in test [1] came out at 0.506; in test [2], 0.524; in test [3], 0.516; in test [4], 0.319.
Turning to `C[C@@H]1COCCN1c1cc(C2([S@](C)(=N)=O)CC2)nc(-c2ccnc3[nH]ccc23)n1` [AZD6738] + O=C(c1cc(Cc2n[nH]c(=O)c3ccccc23)ccc1F)N1CCN(C(=O)C2CC2)CC1 [Olaparib] (first compound max 10 µM, 7x7, partner max 10 µM), the “combination Emax” value in test [1] is 0.308; in test [2] it was 0.692; in test [3], 0.326; in test [4] it was 0.422.
In the case of `Cc1cc2ncnn2cc1Nc1ncc2c(n1)n(C1CCOCC1)c(=O)n2C` [AZD7648] + C=CCn1c(=O)c2cnc(Nc3ccc(N4CCN(C)CC4)cc3)nc2n1-c1cccc(C(C)(C)O)n1 [AZD1775] (first compound max 10 µM, partner max 1 µM), the “combination Emax” value in test [1] worked out at 0.314; in test [2], 0.515; in test [3], 0.345; in test [4], 0.32.
The like results for `Cc1cc2ncnn2cc1Nc1ncc2c(n1)n(C1CCOCC1)c(=O)n2C` [AZD7648] + CCN(CCO)CCCOc1ccc2c(Nc3cc(CC(=O)Nc4cccc(F)c4)[nH]n3)ncnc2c1 [AZD2811] (first compound max 10 µM, 7x7, partner max 1 µM) were, in that order, 0.267, 0.254, 0.455 and 0.352.
`Cc1cc2ncnn2cc1Nc1ncc2c(n1)n(C1CCOCC1)c(=O)n2C` [AZD7648] + CN(C)CCCOc1ccc(-c2ccc3ncc4c(c3c2)n(C2CCOCC2)c(=O)n4C)cn1 [AZD0156] (first compound max 10 µM, 7x7, partner max 1 µM): the “combination Emax” value was 0.274 in test [1], 0.236 in test [2], 0.314 in test [3] and 0.268 in test [4].
Take `Cc1cc2ncnn2cc1Nc1ncc2c(n1)n(C1CCOCC1)c(=O)n2C` [AZD7648] + C[C@@H]1COCCN1C2=NC(=NC(=C2)C3(CC3)[S@](=N)(=O)C)C4=C5C=CNC5=NC=C4 [AZD6738] (first compound max 10 µM, 7x7, partner max 10 µM): the “combination Emax” value is 0.369 in test [1], 0.555 in test [2], 0.349 in test [3] and 0.383 in test [4].
In the case of `Cc1cc2ncnn2cc1Nc1ncc2c(n1)n(C1CCOCC1)c(=O)n2C` [AZD7648] + O=C(c1cc(Cc2n[nH]c(=O)c3ccccc23)ccc1F)N1CCN(C(=O)C2CC2)CC1 [Olaparib] (first compound max 10 µM, 7x7, partner max 10 µM), the “combination Emax” value in test [1] was 0.0586; in test [2] it was 0.147; in test [3], 0.241; in test [4] it was 0.154.
Regarding `COc1cccc2c1C(=O)c1c(O)c3c(c(O)c1C2=O)C[C@@](O)(C(=O)CO)C[C@@H]3O[C@H]1C[C@H](N)[C@H](O)[C@H](C)O1` [Doxorubicin] + Cc1cc2ncnn2cc1Nc1ncc2c(n1)n(C1CCOCC1)c(=O)n2C [AZD7648] (first compound max 1 µM, 7x7, partner max 10 µM), the “combination Emax” value in test [1] was 0.267; in test [2], 0.506; in test [3] it was 0.711; in test [4], 0.556.
With `COc1cccc(OCCCN)c1-c1cc(Nc2cnc(C#N)cn2)n[nH]1` [Prexasertib] + C=CCn1c(=O)c2cnc(Nc3ccc(N4CCN(C)CC4)cc3)nc2n1-c1cccc(C(C)(C)O)n1 [AZD1775] (first compound max 1 µM, partner max 1 µM), the “combination Emax” value in test [1] is 0.41; in test [2] it was 0.662; in test [3] it was 0.435; in test [4], 0.598.
Take `COc1cccc(OCCCN)c1-c1cc(Nc2cnc(C#N)cn2)n[nH]1` [Prexasertib] + CCc1c2c(nc3ccc(O)cc13)-c1cc3c(c(=O)n1C2)COC(=O)[C@]3(O)CC [SN-38] (first compound max 1 µM, 7x7, partner max 0.3 µM): the “combination Emax” value in test [1] amounted to 0.41; in test [2], 0.756; in test [3], 0.903; in test [4], 0.642.
For the molecule `COc1cccc(OCCCN)c1-c1cc(Nc2cnc(C#N)cn2)n[nH]1` [Prexasertib] + CN(C)CCCOc1ccc(-c2ccc3ncc4c(c3c2)n(C2CCOCC2)c(=O)n4C)cn1 [AZD0156] (first compound max 1 µM, 7x7, partner max 1 µM), the “combination Emax” value in test [1] came to 0.444; in test [2], 0.609; in test [3], 0.349; in test [4] it was 0.42.
On to `COc1cccc(OCCCN)c1-c1cc(Nc2cnc(C#N)cn2)n[nH]1` [Prexasertib] + C[C@@H]1COCCN1C2=NC(=NC(=C2)C3(CC3)[S@](=N)(=O)C)C4=C5C=CNC5=NC=C4 [AZD6738] (first compound max 1 µM, 7x7, partner max 10 µM), for which the “combination Emax” value in test [1] was 0.416; in test [2], 0.639; in test [3], 0.278; in test [4], 0.451.
Take `COc1cccc(OCCCN)c1-c1cc(Nc2cnc(C#N)cn2)n[nH]1` [Prexasertib] + Cc1cc2ncnn2cc1Nc1ncc2c(n1)n(C1CCOCC1)c(=O)n2C [AZD7648] (first compound max 1 µM, 7x7, partner max 10 µM): the “combination Emax” value in test [1] turned out to be 0.425; in test [2] it was 0.609; in test [3], 0.416; in test [4], 0.498.
The like results for `COc1cccc(OCCCN)c1-c1cc(Nc2cnc(C#N)cn2)n[nH]1` [Prexasertib] + O=C(c1cc(Cc2n[nH]c(=O)c3ccccc23)ccc1F)N1CCN(C(=O)C2CC2)CC1 [Olaparib] (first compound max 1 µM, 7x7, partner max 10 µM) were, in that order, 0.332, 0.502, 0.203 and 0.43.
As to `COc1cc2c(cc1OCCCCCOc1cc3c(cc1OC)C(=O)N1C=C(C)C[C@H]1C=N3)N=C[C@@H]1CC(C)=CN1C2=O` [SG3199] + O=C(c1cc(Cc2n[nH]c(=O)c3ccccc23)ccc1F)N1CCN(C(=O)C2CC2)CC1 [Olaparib] (first compound max 0.001 µM, 7x7, partner max 10 µM), the “combination Emax” value worked out at 0.02 in test [1], 0.0277 in test [2], 0.148 in test [3] and 0.0316 in test [4].
Take `CCc1c2c(nc3ccc(O)cc13)-c1cc3c(c(=O)n1C2)COC(=O)[C@]3(O)CC` [SN-38] + CN(C)CCCOc1ccc(-c2ccc3ncc4c(c3c2)n(C2CCOCC2)c(=O)n4C)cn1 [AZD0156] (first compound max 0.3 µM, 7x7, partner max 1 µM): the “combination Emax” value in test [1] is 0.135; in test [2], 0.693; in test [3] it was 0.673; in test [4], 0.462.

For the origin of these results see the supplement of paper PMC11061612.
